Key:
[1] = system: LL/2 murine lung carcinoma cells; test: LL/2 syngeneic lung tumor model with radio therapy; format: in vivo, mouse; conditions: COMPOUND 12 30 mg/kg twice daily, radiation 5 gray on days 6 and 9 after implant
Procedure: Six-eight week old BL/6 mice (Charles River Labs) were implanted with 1e6 LL/2 murine lung carcinoma cells subcutaneously on the right flank. At 6 days post implant, animals were randomized by mean cage tumor volume into four groups (n=12/ group). Group 1 was anesthetized for mock irradiation on days 6 and 9, and dosed with vehicle (water) PO, BID starting on day 6. Group 2 was anesthetized and given 5 Gy of radiation targeted to the tumor on days 6 and 9. Group 3 was administered AZ8400 at 30 mg/kg PO bid starting on Day 6, and Group 4 was administered AZ8400 at 30 mg/kg starting on Day 6, and anesthetized and irradiated on days 6 and 9. Body weight and tumor volume were measured twice weekly until tumors were >1500 mm3, at which point mice were humanely sacrificed

[2] = system: Mouse Lewis lung (LL/2) carcinoma cells; test: LL/2 syngeneic tumor model with TLR3 agonist, tumor volume; format: in vivo; conditions: Poly I:C 7.5 mg/kg ip 3x/week; for efficacy / monotherapy activity (in words): COMPOUND 12 30 mg/kg po BID
Procedure: Mouse Lewis lung (LL/2) carcinoma cells (1×10^6 cells/mouse), were subcutaneously implanted in the right flank of 6 to 8 weeks old C57BL/6 mice. On day 6 post implant, groups of mice were treated with vehicle (water), 30 mg/kg COMPOUND 12, 7.5 mg/kg TLR3 agonist (Poly I:C), or the combination. COMPOUND 12 was formulated in water and dosed orally twice per day. Poly I:C was formulated in water and dosed intraperitoneally 3×/week. Tumor length and width was measured by caliper and tumor volume was calculated using the formula (length×width^2)*π/6 then reported as tumor volume as calculated.

[3] = system: Mouse CT.26 WT colorectal cancer cells; test: CT.26 WT syngeneic tumor model, tumor volume; format: in vivo; conditions: COMPOUND 12 30 mg/kg orally twice per day, Anti-PDL1 10 mg/kg ip twice per week
Procedure: Mouse CT.26 WT colorectal cancer cells (5×10^5 cells/mouse), were subcutaneously implanted in the right flank of 6 to 8 weeks old female Balb/C mice. On day 6 post implant, groups of mice were treated with vehicle (water), 30 mg/kg COMPOUND 12, 10 mg/kg Anti-PDL1 (MEDI4736), or the combination. Additional groups were treated with 10 mg/kg Anti-NKG2A (monalizumab), in combination with either COMPOUND 12 or MEDI4736, or a triplicate of COMPOUND 12, monalizumab and MEDI4736. COMPOUND 12 was formulated in water and dosed orally twice per day. MEDI4736 was formulated in 1×PBS and dosed intraperitoneally twice per week for 2 weeks. Monalizumab was formulated in 1×PBS and dosed intravenously twice per week for 1.5 weeks (3 doses). Tumor length and width was measured by caliper and tumor volume was calculated using the formula (length×width^2)*π/6 then reported as tumor volume as calculated.

[4] = system: Mouse MC38 colorectal cancer cells expressing OVA antigen; test: MC38-OVA syngeneic tumor model, tumor volume; format: in vivo; conditions: COMPOUND 12 30 mg/kg orally twice per day, Anti-PDL1 10 mg/kg ip twice per week
Procedure: Mouse MC38 colorectal cancer cells expressing OVA antigen (5×10^5 cells/mouse), were subcutaneously implanted in the right flank of 6 to 8 weeks old female C57BL/6 mice. On day 6 post transplant, groups of mice were treated with vehicle (water), 30 mg/kg COMPOUND 12, 10 mg/kg Anti-PDL1 (MEDI4736), or the combination. COMPOUND 12 was formulated in water and dosed orally twice per day. MEDI4736 was formulated in 1×PBS and dosed intraperitoneally twice per week for 2 weeks. Tumor length and width was measured by caliper and tumor volume was calculated using the formula (length×width^2)*π/6 then reported as tumor volume as calculated.

MC38-OVA model = test: In vivo PD study of immune cell changes in MC38-OVA model (flow cytometry); parameters: species or system mouse; conditions: draining lymph node
Procedure: For monitoring immune cell changes tumors were harvested either four, ten or fourteen days post treatment. Tumors were excised and mechanically minced. Tumors were then incubated with tumor dissociation enzyme mix (Miltenyi Biotec) at 37° C. for 40 min in gentle MACS instrument (Miltenyi biotec). Single cell suspension were made and stained for a variety of immune cell markers to determine the immune cell changes post treatment using multicolor flow cytometry. Furthermore, the functional response of CD8+ cytotoxic T cells was evaluated by ex vivo restimulation with phorbol 12-myristate-13-acetate (PMA) and ionomycin prior to analysis.

| Compound | tumor growth inhibition [1] | efficacy / monotherapy activity (in words) [2] | efficacy (in words) [3] | efficacy (in words) [4] | IFNg producing CD8+ T cells in the periphery (draining LN) (MC38-OVA model) | TNFa producing CD8+ T cells in the periphery (draining LN) (MC38-OVA model) | TGI on day 16 ([2]; day 16) |
| --- | --- | --- | --- | --- | --- | --- | --- |
| CC(C)[C@H](N)C(=O)N[C@H]1CN[C@@](CCCCB(O)O)(C(=O)O)C1 [COMPOUND 12, (2R,4R)-4-((S)-2-amino-3-methylbutanamido)-2-(4-boronobutyl)pyrrolidine-2-carboxylic acid] | about 30% | modestly efficacious | modestly efficacious | modestly efficacious | increase | increase |  |
| Anti-PDL1: MEDI4736, also known as durvalumab, an anti-PD-L1 antibody [reference compound] |  |  | modest efficacy | modest efficacy |  |  |  |
| polyinosinic:polycytidylic acid [Poly I:C] |  | moderate monotherapy activity |  |  |  |  | 76% |
